For test [1], the target named is T1, KCC3 (Homo sapiens, UniProt Q9UHW9).
T1 construct: expressed in transfected cells; host or cells: HEK-293
T1 sequence (Q9UHW9 1-1150): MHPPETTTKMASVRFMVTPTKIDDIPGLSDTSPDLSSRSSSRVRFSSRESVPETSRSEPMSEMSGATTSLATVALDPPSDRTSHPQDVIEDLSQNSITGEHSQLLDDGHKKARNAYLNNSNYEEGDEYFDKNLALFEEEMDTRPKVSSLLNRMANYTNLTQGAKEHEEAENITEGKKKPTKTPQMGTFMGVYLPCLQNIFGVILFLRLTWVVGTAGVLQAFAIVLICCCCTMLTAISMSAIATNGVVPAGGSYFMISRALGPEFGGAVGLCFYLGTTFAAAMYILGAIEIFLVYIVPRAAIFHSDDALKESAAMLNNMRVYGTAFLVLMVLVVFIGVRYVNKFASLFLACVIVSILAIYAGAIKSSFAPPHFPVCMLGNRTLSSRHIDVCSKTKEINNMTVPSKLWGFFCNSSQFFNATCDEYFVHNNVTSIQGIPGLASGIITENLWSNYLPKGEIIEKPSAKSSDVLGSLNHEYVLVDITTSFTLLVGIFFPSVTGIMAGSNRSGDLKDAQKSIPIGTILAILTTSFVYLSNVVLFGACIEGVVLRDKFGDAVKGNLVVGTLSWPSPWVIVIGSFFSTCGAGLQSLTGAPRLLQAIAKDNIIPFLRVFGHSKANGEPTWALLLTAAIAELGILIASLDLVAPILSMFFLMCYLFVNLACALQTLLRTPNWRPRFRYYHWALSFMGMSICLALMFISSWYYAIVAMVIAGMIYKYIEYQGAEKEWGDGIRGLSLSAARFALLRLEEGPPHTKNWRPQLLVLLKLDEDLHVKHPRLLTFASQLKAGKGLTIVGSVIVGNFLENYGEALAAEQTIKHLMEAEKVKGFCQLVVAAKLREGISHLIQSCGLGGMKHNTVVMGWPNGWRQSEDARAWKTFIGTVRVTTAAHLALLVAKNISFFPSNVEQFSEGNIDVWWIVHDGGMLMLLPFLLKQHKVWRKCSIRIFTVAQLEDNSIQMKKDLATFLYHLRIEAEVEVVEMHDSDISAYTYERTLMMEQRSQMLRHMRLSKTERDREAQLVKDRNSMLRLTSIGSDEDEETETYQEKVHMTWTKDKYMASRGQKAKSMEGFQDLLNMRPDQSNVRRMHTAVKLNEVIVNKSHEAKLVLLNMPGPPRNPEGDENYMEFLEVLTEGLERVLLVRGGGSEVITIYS
As to the kind of experiment: Tl+ assay, HEK-293 cells expressing KCC3. It is filed as cell-based. As to conditions: read-out: concentration at which effects on KCC3 were seen (EC50 chart FIG. 1G). The procedure:
FLIPR TI Flux assay. HEK-293 cells were washed with HBSS, and then incubated with loading buffer containing TI sensitive fluorescent dye (https://www.moleculardevices.com), 20 μM bumetanide 20 μM ouabain and 2.5 mM probenecid for 1 h at room temperature (RT) under control conditions or with drugs in the dark using a FlexStation 3 microplate reader (Molecular Devices) and imaged […] for 30 min. Stimulus buffer was added containing 5 mM K^+/0.5 mM Tl^+ and cells were imaged every 1.5 over a 190 second time course The initial rate Tl^+ uptake (Relative Fluorescence Units (RFU) per second) was determined following addition of the stimulus buffer as outlined previously (Conway et at, 2017, supra) (Lee et at, 2022, supra).
Several studies have shown that the activity and plasma membrane accumulation of KCC2 is potentiated via phosphorylation of S940, a process mediated by the activity of protein kinase C and protein phosphatase 1 (Lee et al., 2011, supra; Lee et al., J Biol Chem 282, 29777-29784 (2007); Moore et al., Proc. Natl. Acad. Sci. U.S.A. 115, 10166-10171 (2018); Moore et al., Trends Neurosci. 40, 555-571 (2017); Silayeva et al., Proc. Natl. Acad. Sci. U.S.A. 112, 3523-3528 (2015)). […] Compared to KCC2, effects on KCC3, KCC4, and NKCC1 were only seen at concentrations more than 35-fold that of KCC2 (>100 μM) (FIG. 1G).

Test [2] deals with panel of 144 protein kinases. In words: SelectScreen panel of 144 protein kinases. It is filed as biochemical. As to conditions: includes PKC isoforms, OSR1, SPAK, WNK. Here is the method: Aliquots of HEK-293 cells expressing KCC2 were exposed to 30 μM SSA, heated from 37-55° C. The remaining level of soluble native KCC2 at each temperature was measured by immunoblotting and normalized to the level seen at 37° C. which was given a value of 1. […] This panel included protein kinase C isoforms, OSR1, SPAK (STK39) and with-no-lysine kinases (WNK), all of which phosphorylate KCC2 on multiple residues to indirectly modify its activity (Kahle et al., 2013, supra; Smalley et al., 2020, supra).

The values that follow come from patent publication US20250281497A1, “FUSED AMINO PYRIMIDINE COMPOUNDS FOR TREATMENT OF SEIZURE DISORDERS” (Ovid Therapeutics Inc., priority 2024, published 2025).

Consider `C[C@@H]1CN(c2nc3c(c(Nc4ccc(C5CCCCC5)cc4)n2)COC3)CCO1` [Compound A, (R)—N-(4-cyclohexylphenyl)-2-(2-methylmorpholino)-5,7-dihydrofuro[3,4-d]pyrimidin-4-amine], for which the EC50 in test [1] is greater than 100 µM. For the same compound, in test [2], the “activity of panel of 144 protein kinases” value was “did not modify the activity of this kinase panel”.
